Results as given in US5470737A, “Stably-transformed cells expressing human thiopurine methyltransferase” (priority 1994, dated 1995).
Entries after “also recorded” stand apart in the source; their conditions may differ.

What was measured:
human liver TPMT [1] = conditions: read-out: Apparent Km value for 6-MP; cited from earlier work
human kidney TPMT [2] = target: T1, human kidney TPMT (Homo sapiens, UniProt P51580); conditions: read-out: Apparent Km value for 6-MP; cited from earlier work
T1 construct: to assay the enzyme in human kidney preparations; host or cells: human kidney
T1 sequence (P51580 1-245): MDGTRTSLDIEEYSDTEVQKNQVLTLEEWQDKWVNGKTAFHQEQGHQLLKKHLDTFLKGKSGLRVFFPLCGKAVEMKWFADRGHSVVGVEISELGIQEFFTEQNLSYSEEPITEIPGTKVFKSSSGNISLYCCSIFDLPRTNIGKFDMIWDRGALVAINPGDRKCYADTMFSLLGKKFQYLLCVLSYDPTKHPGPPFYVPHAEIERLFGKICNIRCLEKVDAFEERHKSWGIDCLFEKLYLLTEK

TPMT = conditions: cited from earlier work
[3] = test system: patients with genetically low or undetectable RBC TPMT activity; conditions: patients lacking or with low TPMT activity; cited from earlier work
human liver TPMT [4] = conditions: cited from earlier work
human kidney TPMT [5] = target: T1, human kidney TPMT; assay: DMHBA inhibition of TPMT activity, human kidney; format: biochemical; conditions: DMHBA 0.01 μM to 10 mM
Protocol: (§1) The University of Wisconsin Genetics Computer Group software package was used to analyze sequence information and to make comparisons between the sequence of the TPMT cDNA clone and the sequences of other cloned proteins. The GenBank Genetics Sequence Data Bank and the EMBL Nucleotide Sequence Database were used to search for nucleotide homologies, whereas the Swiss-Prot Protein Sequence Database was used to search for protein structural homologies. IC50 values were calculated with the GraphPAD Inplot program (GraphPAD, San Diego, Calif.).
Renal tissue was obtained either during autopsy or from patients undergoing clinically indicated nephrectomies. Hepatic tissue was obtained from patients who underwent clinically indicated partial hepatectomies for the removal of primary or metastatic hepatic tumors. All tissue was obtained under guidelines approved by the Mayo Clinic Institutional Review Board. Macroscopically normal tissue was stored at -80° C., conditions under which TPMT activity is stable (C. L. Szumlanski et al., Pharmacogenetics, 2, 148 (1992); J. A. Van Loon et al., Drug Met. Disposit., 18, 632 (1990)). […]
TPMT activity in renal tissue was measured by the method of R. M. Weinshilboum et al., in Clin. Chim. […]

T84 cell TPMT = target: T2, T84 cell TPMT (Homo sapiens, UniProt P51580); assay: DMHBA inhibition of TPMT activity, T84 cells; format: biochemical; conditions: DMHBA 0.01 μM to 10 mM
T2 construct: Cytosol from T84 cells did contain TPMT enzymatic activity; host or cells: T84 human colon carcinoma cells
T2 sequence (P51580 1-245): T1 sequence (P51580 1-245)
Protocol: as §1
(§2) TPMT activity in renal tissue was measured by the method of R. M. Weinshilboum et al., in Clin. Chim. Acta, 85, 323 (1978) as modified by L. C. Woodson et al., Biochem. Pharmacol., 32, 819 (1983) to assay the enzyme in human kidney preparations. […] Ado-Met as the methyl donor. Assay conditions for the measurement of TPMT in T84 human colon carcinoma cells and in COS-1 cells were identical with those used to measure the enzyme activity in human renal tissue. One unit of TPMT activity represented the formation of 1 nmol of 6-MMP per hr of incubation at 37° C.
T84 human colon carcinoma cells (American Type Culture Collection, Rockville, Md.) were grown to confluence in an equal volume mixture of Dulbecco's modified Eagle's medium (DMEM) and Ham's F12 media with 5% fetal calf serum. […]

[6] = target: T3, TPMT expressed in COS-1 cells transfected with T84 cell TPMT cDNA (Homo sapiens, UniProt P51580); assay: DMHBA inhibition of TPMT activity expressed in transfected COS-1 cells; format: biochemical; conditions: COS-1 cells transfected with cDNA clone; FIG. 6
T3 sequence (P51580 1-245): T1 sequence (P51580 1-245)
Protocol: as §1, §2
Simian COS-1 cells were then plated in 100-mm dishes at a density of 1.5-1.8×10^6 cells/dish in DMEM with 10% fetal calf serum, and were allowed to grow overnight. Three dishes of cells were used for each transfection. […]

human kidney TPMT [7] = target: T1, human kidney TPMT; conditions: cited from earlier work

SMILES	Km (human liver TPMT [1])	Km (human kidney TPMT [2])	substrate for TPMT (in words) (TPMT)	risk of myelosuppression (in words) [3]	inhibition of human liver TPMT activity (in words) (human liver TPMT [4])	IC50 (human liver TPMT [4]; read-out: DMHBA IC50)	IC50 (human kidney TPMT [5])	IC50 (T84 cell TPMT)	IC50 value, TPMT activity expressed in COS-1 cells (in words) [6]	inhibition of human kidney TPMT activity (in words) (human kidney TPMT [7])
Sc1ncnc2nc[nH]c12 [6-MP, 6-mercaptopurine]	580 µM	300 µM	substrates for TPMT	even more at risk for the occurrence of severe myelosuppression; also recorded: greatly increased risk for the development of life-threatening thiopurine-induced myelosuppression	–	–	–	–	–	–
COc1cc(C(=O)O)cc(O)c1OC [DMHBA, 3,4-dimethoxy-5-hydroxybenzoic acid]	–	–	–	–	known to be inhibited	8.5 µM	7.8 µM	6.6 µM	nearly identical to that of the TPMT present in T84 cells	known to be inhibited
